Test results as given in patent publication US7994140B2, “Classes of compounds that interact with GPCRs” (Alchemia Limited, priority 2002, dated 2011).

molecular target: T1, MC4 (Homo sapiens, UniProt P32245); assay: GPCR radioligand binding (RLB) assay, melanocortin MC4, [125I]NDP-αMSH; details: 1.0 micromolar compound
T1 construct: purchased Perkin Elmer BioSignal; host or cells: HEK 293
Procedure: Recombinant human receptors expressed in HEK 293 cells were used for all experiments. Receptor membrane preparations were purchased from Perkin Elmer BioSignal. The labelled ligand used in somatostatin GPCR RLB assays was [^125I]SST-14 and in melanocortin assays was [^125I]NDP-αMSH. All assays were done in a 96-well plate format using either glass fiber filter mats or filter plates. All reagents purchased were of the highest quality.
Specific assay buffer, incubation and washing conditions were optimized for each receptor however they all followed the same general format. The procedures for both filter mat and filter plate formats are based on the receptor manufacturers recommendations or those described extensively in the literature. The procedures are briefly outlined below.
In assays where filter mats are used we incubate receptor membranes, assay buffer and [^125I] labelled ligand in 96 well microplates. Add compounds to incubation mixture and continue incubation for optimized period. Presoak Filter mat GF/B in 0.5% PEI for ˜2 hr at 4° C. On completion of assay mixture incubation add additional 100 μL/well of assay buffer immediately prior to filtration. Filter the assay mixture onto the GF/B filter mat using a cell harvester. Dry the filter mats prior to sealing them into a scintillation counting bag with scintillant. Radioactivity in each well is detected by liquid scintillation counting.
In assays where filter plates are used Multiscreen glass fiber filter plates (Millipore, Cat No MAFCNOB10) are precoated with 0.5% PEI for ˜2 hr at 4° C. All wells are then washed with 200 µl/well assay buffer and filtered using the Multiscreen Separation System. Subsequently receptor membranes, assay buffer and labelled ligands are added to the wells and equilibrated. Compounds for testing are then added to the mixture and incubation is continued for an optimized time. Plates are then put into the Multiscreen Separation System and the assay mixture is filtered through the plate under vacuum. Each well is then washed several times with assay buffer. Plates are then dried prior to putting sealing tape onto the bottom of the plate. Scintillant is added to each well and radioactivity measured by liquid scintillation counting.
Raw data was analysed according to standard methods using either GraphPad Prism software or IDDBS ActivityBase software.

T1 sequence (P32245 whole entry): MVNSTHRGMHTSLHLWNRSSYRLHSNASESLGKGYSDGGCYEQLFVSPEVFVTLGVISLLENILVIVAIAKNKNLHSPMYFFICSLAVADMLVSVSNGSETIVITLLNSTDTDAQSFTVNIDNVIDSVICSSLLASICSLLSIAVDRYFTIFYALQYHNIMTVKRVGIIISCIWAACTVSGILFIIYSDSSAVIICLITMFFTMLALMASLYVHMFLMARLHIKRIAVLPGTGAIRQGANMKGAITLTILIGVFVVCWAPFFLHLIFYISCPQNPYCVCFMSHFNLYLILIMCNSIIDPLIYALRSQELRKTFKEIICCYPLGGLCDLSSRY

Structure (SMILES)	MC4 Inhibition at 1.0 Micromolar
CC(=O)N[C@H]1C(NC(=O)CCN)O[C@H](CO)[C@@H](O)[C@@H]1OCc1cccc2ccccc12 (stereo partly drawn) [Compound 500]	+ (Indicates inhibition greater than . . . 50%)
NCCC(=O)NC1O[C@H](CO)[C@@H](O)[C@H](OCc2ccc(Cl)cc2)[C@H]1NC(=O)c1ccccc1 (stereo partly drawn) [Compound 503]	+ (Indicates inhibition greater than . . . 50%)

same assay, conditions: 4.0 Micromolar; Example Library 10

Structure (SMILES)	MC4 Inhibition at 4.0 Micromolar
NCCCC(=O)N[C@H]1C(OCc2ccc3ccccc3c2)O[C@H](COCc2ccc3ccccc3c2)[C@@H](O)[C@@H]1OCc1ccccc1 (single isomer, unassigned) [Compound 372]	+ (Indicates inhibition greater than . . . 50%)
NCCC(=O)N[C@H]1C(OCc2ccc3ccccc3c2)O[C@H](COCc2ccccc2)[C@@H](O)[C@@H]1OCc1ccc(Cl)cc1 (stereo partly drawn) [Compound 352]	+ (Indicates inhibition greater than . . . 50%)
NCCC(=O)N[C@H]1C(OCc2ccc3ccccc3c2)O[C@H](COCc2ccc(Cl)cc2)[C@@H](O)[C@@H]1OCc1ccc2ccccc2c1 (stereo partly drawn) [Compound 360]	+ (Indicates inhibition greater than . . . 50%)
NCCCC(=O)N[C@H]1C(OCc2ccc(Cl)cc2)O[C@H](COCc2ccccc2)[C@@H](O)[C@@H]1OCc1ccc2ccccc2c1 (single isomer, unassigned) [Compound 391]	+ (Indicates inhibition greater than . . . 50%)

same assay, conditions: 4.0 Micromolar; Example Library 11

Structure (SMILES)	MC4 Inhibition at 4.0 Micromolar
NCCCC(=O)NC1C(OCc2ccc3ccccc3c2)OC(COCc2ccccc2)C(O)C1OCc1ccc2ccccc2c1 (stereo not drawn) [Compound 426]	+ (Indicates inhibition greater than . . . 50%)
NCCC(=O)NC1C(OCc2ccccc2)OC(COCc2ccc(Cl)cc2)C(O)C1OCc1ccccc1 (stereo not drawn) [Compound 405]	+ (Indicates inhibition greater than . . . 50%)
NCCCC(=O)NC1C(OCc2ccc3ccccc3c2)OC(COCc2ccc3ccccc3c2)C(O)C1OCc1ccc(Cl)cc1 (stereo not drawn) [Compound 422]	+ (Indicates inhibition greater than . . . 50%)
NCCC(=O)NC1C(OCc2ccccc2)OC(COCc2ccc3ccccc3c2)C(O)C1OCc1ccc2ccccc2c1 (stereo not drawn) [Compound 400]	+ (Indicates inhibition greater than . . . 50%)

same assay, conditions: 4.0 Micromolar; Example Library 12

Structure (SMILES)	MC4 Inhibition at 4.0 Micromolar
N=C(N)NCC(=O)N[C@H]1C(OCc2ccccc2)O[C@H](COCc2ccccc2)[C@@H](O)[C@@H]1OCc1ccc(Cl)cc1 (stereo partly drawn) [Compound 433]	+ (Indicates inhibition greater than . . . 50%)
N=C(N)NCC(=O)N[C@H]1C(OCc2ccccc2)O[C@H](COCc2ccccc2)[C@@H](O)[C@@H]1OCc1ccc(-c2ccccc2)cc1 (stereo partly drawn) [Compound 443]	+ (Indicates inhibition greater than . . . 50%)
N=C(N)NCC(=O)N[C@H]1C(OCc2ccccc2)O[C@H](COCc2ccc(Cl)cc2)[C@@H](O)[C@@H]1OCc1ccc(-c2ccccc2)cc1 (stereo partly drawn) [Compound 445]	+ (Indicates inhibition greater than . . . 50%)
N=C(N)NCCC(=O)N[C@H]1C(OCc2ccccc2)O[C@H](COCc2ccc3ccccc3c2)[C@@H](O)[C@@H]1OCc1ccc(-c2ccccc2)cc1 (stereo partly drawn) [Compound 457]	+ (Indicates inhibition greater than . . . 50%)
N=C(N)NCCC(=O)N[C@H]1C(OCc2ccccc2)O[C@H](COCc2ccccc2)[C@@H](O)[C@@H]1OCc1ccc(Cl)cc1 (stereo partly drawn) [Compound 448]	+ (Indicates inhibition greater than . . . 50%)
N=C(N)NCC(=O)N[C@H]1C(OCc2ccccc2)O[C@H](COCc2ccc(Cl)cc2)[C@@H](O)[C@@H]1OCc1ccc(Cl)cc1 (stereo partly drawn) [Compound 435]	+ (Indicates inhibition greater than . . . 50%)
N=C(N)NCC(=O)N[C@H]1C(OCc2ccccc2)O[C@H](COCc2ccc3ccccc3c2)[C@@H](O)[C@@H]1OCc1ccc2ccccc2c1 (stereo partly drawn) [Compound 436]	+ (Indicates inhibition greater than . . . 50%)
N=C(N)NCC(=O)N[C@H]1C(OCc2ccccc2)O[C@H](COCc2ccc(Cl)cc2)[C@@H](O)[C@@H]1OCc1ccc(-c2ccccc2)cc1 (stereo partly drawn) [Compound 444]	+ (Indicates inhibition greater than . . . 50%)
N=C(N)NCCC(=O)N[C@H]1C(OCc2ccccc2)O[C@H](COCc2ccc3ccccc3c2)[C@@H](O)[C@@H]1OCc1ccc2ccccc2c1 (stereo partly drawn) [Compound 452]	+ (Indicates inhibition greater than . . . 50%)
N=C(N)NCCC(=O)N[C@H]1C(OCc2ccccc2)O[C@H](COCc2ccccc2)[C@@H](O)[C@@H]1OCc1ccc2ccccc2c1 (stereo partly drawn) [Compound 454]	+ (Indicates inhibition greater than . . . 50%)

same assay, conditions: 4.0 Micromolar; Example Library 13

Structure (SMILES)	MC4 Inhibition at 4.0 Micromolar
N=C(N)NCCC(=O)N[C@H]1C(OCc2ccc(-c3ccccc3)cc2)O[C@H](COCc2ccccc2)[C@@H](O)[C@H]1OCc1ccc(-c2ccccc2)cc1 (stereo partly drawn) [Compound 477]	+ (Indicates inhibition greater than . . . 50%)
N=C(N)NCCC(=O)N[C@H]1C(OCc2ccc(-c3ccccc3)cc2)O[C@H](COCc2ccc3ccccc3c2)[C@@H](O)[C@H]1OCc1ccc(-c2ccccc2)cc1 (stereo partly drawn) [Compound 476]	+ (Indicates inhibition greater than . . . 50%)
N=C(N)NCC(=O)NC1C(OCc2ccc(Cl)cc2)OC(COCc2ccc3ccccc3c2)C(O)C1OCc1ccc(-c2ccccc2)cc1 (stereo not drawn) [Compound 485]	+ (Indicates inhibition greater than . . . 50%)
N=C(N)NCCC(=O)N[C@H]1C(OCc2ccc(-c3ccccc3)cc2)O[C@H](COCc2ccc(Cl)cc2)[C@@H](O)[C@H]1OCc1ccc(-c2ccccc2)cc1 (stereo partly drawn) [Compound 478]	+ (Indicates inhibition greater than . . . 50%)
N=C(N)NCCC(=O)N[C@H]1C(OCc2ccc(-c3ccccc3)cc2)O[C@H](COCc2ccc(Cl)cc2)[C@@H](O)[C@H]1OCc1ccc2ccccc2c1 (stereo partly drawn) [Compound 475]	+ (Indicates inhibition greater than . . . 50%)
N=C(N)NCC(=O)N[C@H]1C(OCc2ccc(-c3ccccc3)cc2)O[C@H](COCc2ccccc2)[C@@H](O)[C@H]1OCc1ccc2ccccc2c1 (stereo partly drawn) [Compound 466]	+ (Indicates inhibition greater than . . . 50%)

same assay, conditions: 4.0 micromolar compound

Structure (SMILES)	MC4 Inhibition at 4.0 Micromolar
COC1C(O)C(COCc2ccc3ccccc3c2)OC(OCc2ccc(Cl)cc2)C1NC(=O)C(N)CN (stereo not drawn) [Compound 346]	+ (Indicates inhibition greater than . . . 50%)

same assay, conditions: 10 micromolar compound; recombinant human receptor membranes (HEK 293)

Structure (SMILES)	MC4 inhibition at 10 micromolar
CSC1OC(COCc2cccc(N)c2)C(O)C(OCc2ccccc2)C1NC(=O)c1c[nH]c2ccccc12 (stereo not drawn) [Compound 328]	+ (Indicates inhibition greater than . . . 50%)
COC1C(O)C(COCc2ccc3ccccc3c2)OC(OCc2ccc(-c3ccccc3)cc2)C1NC(=O)CCCNC(=N)N (stereo not drawn) [Compound 62]	+ (Indicates inhibition greater than . . . 50%)
COC1C(O)C(COCc2ccc(-c3ccccc3)cc2)OC(OCc2ccccc2)C1NC(=O)CCCNC(=N)N (stereo not drawn) [Compound 79]	+ (Indicates inhibition greater than . . . 50%)
COC[C@H]1OC(OCCc2ccccc2)[C@H](NC(=O)CCNC(=N)N)[C@@H](OCc2ccc(-c3ccccc3)cc2)[C@@H]1O (stereo partly drawn) [Compound 20]	+ (Indicates inhibition greater than . . . 50%)
CSC1O[C@H](COCc2cccc(N)c2)[C@@H](O)[C@H](OCc2ccc(Cl)cc2)[C@H]1NC(=O)/C=C/c1ccccc1 (stereo partly drawn) [Compound 340]	+ (Indicates inhibition greater than . . . 50%)
COC[C@H]1OC(OCCc2ccccc2)[C@H](NC(=O)CNC(=N)N)[C@@H](OCc2ccc(-c3ccccc3)cc2)[C@@H]1O (stereo partly drawn) [Compound 19]	+ (Indicates inhibition greater than . . . 50%)
CO[C@H]1[C@H](O)[C@@H](COCc2ccc(Cl)cc2)OC(OCc2ccc(Cl)cc2)[C@@H]1NC(=O)CCCNC(=N)N (stereo partly drawn) [Compound 95]	+ (Indicates inhibition greater than . . . 50%)
CSC1O[C@H](COCc2cccc(N)c2)[C@@H](O)[C@H](OCc2ccccc2)[C@H]1NC(=O)c1ccccc1 (stereo partly drawn) [Compound 333]	+ (Indicates inhibition greater than . . . 50%)
COC1C(O)C(COCc2ccc(Cl)cc2)OC(OCc2ccc3ccccc3c2)C1NC(=O)CCCNC(=N)N (stereo not drawn) [Compound 78]	+ (Indicates inhibition greater than . . . 50%)
COC1C(O)C(COCc2ccc(-c3ccccc3)cc2)OC(OCc2ccc3ccccc3c2)C1NC(=O)CCNC(=N)N (stereo not drawn) [Compound 68]	+ (Indicates inhibition greater than . . . 50%)
CO[C@H]1[C@H](O)[C@@H](COCc2ccc(Cl)cc2)OC(OCCc2ccccc2)[C@@H]1NC(=O)CNC(=N)N (stereo partly drawn) [Compound 104]	+ (Indicates inhibition greater than . . . 50%)
CO[C@H]1[C@H](O)[C@@H](COCc2ccc(-c3ccccc3)cc2)OC(OCc2cccc(O)c2)[C@@H]1NC(=O)CCCN (stereo partly drawn) [Compound 114]	+ (Indicates inhibition greater than . . . 50%)
